Consider five compounds from US9586959B2, “Substituted tricyclic heterocycles as histamine 4 receptor inhibitors” (C&C RESEARCH LABORATORIES, priority 2011, dated 2017).

Experiment [1] concerns compound 48/80-induced itching, ICR mice. In words: Compound 48/80-induced itching model in ICR mice. In kind it is in vivo. The conditions noted are these: 50 mg/kg oral, compound 48/80 100 μg intradermal, 20 min count. On the procedure:
Female, ICR mice (8 weeks old) were purchased from OrientBio Co., Ltd. The animals were housed under conditions of controlled temperature (23±3° C.), humidity (50±5%) and lighting with food and water available ad libitum.
The hair was clipped using clippers (8000AD, THRIVE) over the rostral part of the back 24 hours before the experiment under anesthesia with isoflurane. Compound 48/80 (100 μg) were dissolved in saline and a volume of 40 μL injected intradermally into the rostral part of the back. Mice were dosed by orally with either vehicle (20% cyclodextrin in second distilled water) or the compound by orally administration. The Compound (50 mg/kg) dissolved in a vehicle (20% cyclodextrin in second distilled water) and administered orally at a volume of 10 mL/kg.
Mice (n=8-10 per group) were divided into 3 groups (normal group, control group and experimental group). The animals were randomized for similar body weight distribution. A vehicle or the compound was administered 20 minutes before injection of compound 48/80 or saline. Immediately after intradermal injection, the animals were returned to an acrylic cage (approximately 30×30×30 cm, access production) composed of four cells, to which they had been acclimated for at least 1 hour before the experiment, for observation of itch responses. A camera (Samsung, VLUUNV30) was positioned above the mice to record their response. Itch was measured by blinded counting of the number of bouts in the 20 min period immediately after the intradermal injection. A number of scratching was defined as 3 or more individual rapid scratch movements with the hind paws around the injection site (J. Pharmacol. Sci. 2006, 100, 285-288; European J. of Pharmacol. 2002, 448, 175-183). All data were analyzed by using Excel and Prism, and all values are expressed as the mean±S.E.M. The inhibitory effect of compounds is shown as a percentage of the maximal response to histamine (100% control group). Statistical analysis was analyzed using one-way ANOVA with Dunnett test. Values of p<0.05 were considered statistically significant.

The subject of experiment [2] is Dermatophagoides farina-induced atopic dermatitis, NC/Nga mice. In words: Dermatophagoides farina-induced atopic dermatitis NC/Nga mouse model. In kind it is in vivo. The conditions noted are these: BID, oral, 3 weeks, control group (Df) 9.0. On the procedure:
Female, NC/Nga mice (3 weeks old, 15-17 g) were purchased from Central Lab. Animal Inc. The animals were housed in conditions of controlled temperature (23±3° C.), humidity (50±5%) and lighting with food and water available ad libitum.
The hair of back of the mice was shaved with clipper, and the remaining hair was removed completely using shaving cream. For barrier disruption, 150 μL of 4% sodium dodecyl sulfate (SDS) was applied to the shaved back skin The Df ointment (100 mg/mouse) was applied twice a week for 3 weeks. The compound were administered orally twice a day in the morning and afternoon for 3 weeks, and then the severity of dermatitis was evaluated on days 2, 7, 10, 14 and 21. The development of (1) erythema/haemorrhage, (2) scarring/dryness, (3) oedema, (4) excoriation/erosion was scored as 0 (none), 1 (mild), 2 (moderate) and 3 (severe). The total skin score was defined as the sum of the individual scores. (Scandinavian Journal of Immunol. 2011, 73, 536-545). Statistical analysis was analyzed using one-way ANOVA with Dunnett test. Values of p<0.05 were considered statistically.

`CN1CCN(c2nc3ncc(Cl)cc3n3cnnc23)CC1` [Compound 4, 8-Chloro-4-(4-methylpiperazin-1-yl)pyrido[2,3-e][1,2,4]triazolo[4,3-a]pyrazine]: the “Number of scratching (% change from control group)” value in experiment [1] is on record as 49.6^1%.

As for `CNC1CN(c2nc3ncc(Cl)cc3n3cnnc23)C1` [Compound 18, 1-(8-Chloropyrido[2,3-e][1,2,4]triazolo[4,3-a]pyrazin-4-yl)-N-methylazetidin-3-amine], the “Number of scratching (% change from control group)” value in experiment [1] was 50.9^1%.

Turning to `CNC1CN(c2nc3ncc(Br)cc3n3cnnc23)C1` [Compound 24, 1-(8-Bromopyrido[2,3-e][1,2,4]triazolo[4,3-a]pyrazin-4-yl)-N-methylazetidin-3-amine], the “Scoring of Skin lesions (day 21)” value in experiment [2] (25 mg/kg) is listed as 7.2; in experiment [2] (50 mg/kg) it was 4.4^1. For the same compound, the “Number of scratching (% change from control group)” value in experiment [1] is recorded as 47.9^1%.

Turning to `CNC1CN(c2nc3ncc(I)cc3n3cnnc23)C1` [Compound 48, 1-(8-Iodopyrido[2,3-e][1,2,4]triazolo[4,3-a]pyrazin-4-yl)-N-methylazetidin-3-amine], in experiment [1], the “Number of scratching (% change from control group)” value was found to be 30.3%.

Regarding `CNC1CN(c2nc3ncc(Br)cc3n3nnnc23)C1` [Compound 95, 1-(8-Bromopyrido[2,3-e]tetrazolo[1,5-a]pyrazin-4-yl)-N-methylazetidin-3-amine], the “Number of scratching (% change from control group)” value in experiment [1] was 93.6^1%.
